{"source": "paper PMC12795810", "about": "(Nature Communications, 2025)", "key": {"[1]": {"settings": "when combined with letrozole/abemaciclib"}, "[2]": {"settings": "cited from earlier work"}}, "data": [{"smiles": "CN(C)C(=N)N=C(N)N", "note": "[metformin]", "values": [{"measurement": "increase in metformin exposure", "setting": "[1]", "value": "more than 3 fold"}, {"measurement": "recommended maximum concentration for safe clinical use", "setting": "[2]", "value": 2500, "unit": "µg/L"}]}]}
